# Experiment: Parallel artificial membrane permeability assay
# Assay type: in vitro ADME
# Conditions: result in words
row,SMILES,permeability by PAMPA
1,"Cc1ccc(CNC(=O)[C@@H]2Cc3cccc(c3)Oc3cccc(c3)C[C@H](N)C(=O)N[C@@H](CCc3ccccc3)C(=O)N2)cc1 [CP1, (5S,8S,11S)-11-amino-N-(4-methylbenzyl)-7,10-dioxo-8-phenethyl-2-oxa-6,9-diaza-1,3(1,3)-dibenzenacyclododecaphane-5-carboxamide]",undetectable
2,O=C(NC1CCCC1)[C@@H]1CCCCOc2cccc(c2)C[C@H](N2CCCC2=O)C(=O)N[C@@H](CCN2CCOCC2)C(=O)N1 [TDI8304],modest

# Reference: paper PMC10152543 (Journal of medicinal chemistry, 2022)
